{"source": "patent US9499550B2", "about": "(BRISTOL-MYERS SQUIBB COMPANY, priority 2012, dated 2016)", "key": {"[1]": {"tested_on": "HCV genotype 1a (H77 strain) replicon in HUH-7 cells", "assay": "HCV replicon luciferase reporter assay, genotype 1a", "assay_type": "cell-based", "settings": "Hepatitis C virus, Huh-7, 72 h, HCV genotype 1a replicon luciferase, 3 days incubation", "in_short": "(§1)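 Replicon inhibition for both genotypes was measured as Renilla luciferase signal (EnduRen, 7.5 μM final, 2 h) after 3-day, 37° C exposure of replicon-bearing HUH-7 cells in 4% FCS DMEM, 0.5% DMSO. The 1b construct carries S1179I; the 1a H77 construct carries P1496L and S2204I. Twenty-point, 3-fold dilutions were fitted four-parametrically for EC50, and CC50 was taken from multiplexed Cell Titer-Blue.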"}, "[2]": {"tested_on": "HCV genotype 1b (Con1) replicon in HUH-7 cells", "assay": "HCV replicon luciferase reporter assay, genotype 1b", "assay_type": "cell-based", "settings": "Hepatitis C virus, Huh-7, 72 h, HCV genotype 1b replicon luciferase, 3 days incubation", "in_short": "as §1"}}, "note": "Like-named read-outs stand apart in the source and are kept apart here.", "data": [{"compound": "CC[C@@H]1C[C@@H](C)CC/C=C\\[C@@H]2C[C@@]2(C(=O)NS(=O)(=O)C2(C)CC2)NC(=O)[C@@H]2C[C@@H](Oc3nnc(OC)c4ccccc34)CN2C(=O)[C@H]1NC(=O)OC(C)(C)C(F)(F)F", "note": "[Compound 5017, 1,1,1-trifluoro-2-methylpropan-2-yl((2R,6S,7R,9S,13aS,14aR,16aS,Z)-7-ethyl-2-((4-methoxyphthalazin-1-yl)oxy)-9-methyl-14a-(((1-methylcyclopropyl)sulfonyl)carbamoyl)-5,16-dioxo-1,2,3,5,6,7,8,9,10,11,13a,14,14a,15,16,16a-hexadecahydrocyclopropa[e]pyrrolo[1,2-a][1,4]diazacyclopentadecin-6-yl)carbamate]", "values": [{"measurement": "EC50", "setting": "[1]; read-out: LE_1a (EC50, range)", "result": "4.82 to 103", "unit": "nM"}, {"measurement": "EC50", "setting": "[2]; read-out: LE_1b (EC50, range)", "result": "< 5.46", "unit": "nM"}]}, {"compound": "CC[C@@H]1C[C@H](C)CC/C=C\\[C@@H]2C[C@@]2(C(=O)NS(=O)(=O)C2(C)CC2)NC(=O)[C@@H]2C[C@@H](Oc3nnc(OC)c4ccccc34)CN2C(=O)[C@H]1NC(=O)OC(C)(C)C(F)(F)F", "note": "[Compound 5018, 1,1,1-trifluoro-2-methylpropan-2-yl((2R,6S,7R,9R,13aS,14aR,16aS,Z)-7-ethyl-2-((4-methoxyphthalazin-1-yl)oxy)-9-methyl-14a-(((1-methylcyclopropyl)sulfonyl)carbamoyl)-5,16-dioxo-1,2,3,5,6,7,8,9,10,11,13a,14,14a,15,16,16a-hexadecahydrocyclopropa[e]pyrrolo[1,2-a][1,4]diazacyclopentadecin-6-yl)carbamate]", "values": [{"measurement": "EC50", "setting": "[1]; read-out: LE_1a (EC50, range)", "result": "< 5.46", "unit": "nM"}, {"measurement": "EC50", "setting": "[2]; read-out: LE_1b (EC50, range)", "result": "< 5.46", "unit": "nM"}]}, {"compound": "[2H]C([2H])([2H])C(OC(=O)N[C@@H]1C(=O)N2C[C@H](Oc3nnc(OC)c4ccccc34)C[C@H]2C(=O)N[C@]2(C(=O)NS(=O)(=O)C3(C)CC3)C[C@H]2/C=C\\CC[C@H](C)C[C@H]1CC)(C([2H])([2H])[2H])C(F)(F)F", "note": "[Compound 5019]", "values": [{"measurement": "EC50", "setting": "[1]; read-out: LE_1a (EC50)", "result": 7.27, "unit": "nM"}, {"measurement": "EC50", "setting": "[1]; read-out: LE_1a (EC50, range)", "result": "4.82 to 103", "unit": "nM"}, {"measurement": "EC50", "setting": "[2]; read-out: LE_1b (EC50)", "result": 3.65, "unit": "nM"}, {"measurement": "EC50", "setting": "[2]; read-out: LE_1b (EC50, range)", "result": "< 5.46", "unit": "nM"}]}, {"compound": "[2H]C([2H])([2H])C(OC(=O)N[C@@H]1C(=O)N2C[C@H](Oc3nnc(OC)c4ccccc34)C[C@H]2C(=O)N[C@]2(C(=O)NS(=O)(=O)C3(C)CC3)C[C@H]2/C=C\\CC[C@@H](C)C[C@H]1CC)(C([2H])([2H])[2H])C(F)(F)F", "note": "[Compound 5020]", "values": [{"measurement": "EC50", "setting": "[1]; read-out: LE_1a (EC50, range)", "result": "< 5.46", "unit": "nM"}, {"measurement": "EC50", "setting": "[2]; read-out: LE_1b (EC50, range)", "result": "< 5.46", "unit": "nM"}]}, {"compound": "[2H]C([2H])([2H])C(C)(OC(=O)N[C@@H]1C(=O)N2C[C@H](Oc3nnc(OC)c4ccccc34)C[C@H]2C(=O)N[C@]2(C(=O)NS(=O)(=O)C3(C)CC3)C[C@H]2/C=C\\CC[C@H](C)C[C@H]1CC)C([2H])([2H])[2H]", "note": "[Compound 5021]", "values": [{"measurement": "EC50", "setting": "[1]; read-out: LE_1a (EC50, range)", "result": "4.82 to 103", "unit": "nM"}, {"measurement": "EC50", "setting": "[2]; read-out: LE_1b (EC50, range)", "result": "< 5.46", "unit": "nM"}]}, {"compound": "[2H]C([2H])([2H])C(C)(OC(=O)N[C@@H]1C(=O)N2C[C@H](Oc3nnc(OC)c4ccccc34)C[C@H]2C(=O)N[C@]2(C(=O)NS(=O)(=O)C3(C)CC3)C[C@H]2/C=C\\CC[C@@H](C)C[C@H]1CC)C([2H])([2H])[2H]", "note": "[Compound 5022]", "values": [{"measurement": "EC50", "setting": "[1]; read-out: LE_1a (EC50, range)", "result": "< 5.46", "unit": "nM"}, {"measurement": "EC50", "setting": "[2]; read-out: LE_1b (EC50, range)", "result": "< 5.46", "unit": "nM"}]}, {"compound": "CC[C@@H]1C[C@@H](C)CC/C=C\\[C@@H]2C[C@@]2(C(=O)NS(=O)(=O)C2(C)CC2)NC(=O)[C@@H]2C[C@@H](Oc3nnc(OC)c4ccccc34)CN2C(=O)[C@H]1NC(=O)NC(C)(C)C", "note": "[Compound 5023, (2R,6S,7R,9S,13aS,14aR,16aS,Z)-6-(3-(tert-butyl)ureido)-7-ethyl-2-((4-methoxyphthalazin-1-yl)oxy)-9-methyl-N-((1-methylcyclopropyl)sulfonyl)-5,16-dioxo-1,2,3,5,6,7,8,9,10,11,13a,14,14a,15,16,16a-hexadecahydrocyclopropa[e]pyrrolo[1,2-a][1,4]diazacyclopentadecine-14a-carboxamide]", "values": [{"measurement": "EC50", "setting": "[1]; read-out: LE_1a (EC50)", "result": 16, "unit": "nM"}, {"measurement": "EC50", "setting": "[1]; read-out: LE_1a (EC50, range)", "result": "4.82 to 103", "unit": "nM"}, {"measurement": "EC50", "setting": "[2]; read-out: LE_1b (EC50)", "result": 24.6, "unit": "nM"}, {"measurement": "EC50", "setting": "[2]; read-out: LE_1b (EC50, range)", "result": "4.82 to 103", "unit": "nM"}]}]}
